{"source": "paper PMC11172375", "about": "“Preclinical Evaluation of Biodistribution and Toxicity of [^211At]PSMA-5 in Mice and Primates for the Targeted Alpha Therapy against Prostate Cancer” (International Journal of Molecular Sciences, 2024)", "key": {"[1]": {"assay": "Biodistribution in ICR mice", "assay_type": "in vivo", "procedure": "(§1) [^211At]PSMA-5 was administered intravenously to 25 mice, and its biodistribution was evaluated. For the toxicity study, three doses of [^211At]PSMA-5 (5, 12, and 35 MBq/kg, single dose) or saline were intravenously administered to 10 mice/group for the main evaluation point on day 1, and 5-mice/group for recovery evaluation on day 14, adhering to the ICH M3 (R2) guidelines. The dosage was determined based on our previous study using [^211At]NaAt. The monkeys were monitored for 24 h post-administration of [^211At]PSMA-5 (9 MBq/kg).\n(§2) Monkeys were anesthetized with intramuscular administration of ketamine (10 mg/kg) and xylazine (0.5 mg/kg) with isoflurane inhalation anesthesia. Planar and Single Photon Emission Computed Tomography (SPECT) imaging was performed in monkeys using a γ-camera system (E-cam, Siemens, Erlangen, Germany) immediately after administration to 1 h and at 3 and 24 h post-administration of [^211At]PSMA-5 (9 MBq/kg), targeting the X-rays emitted from the daughter nuclide ^211Po (energy window: 79 keV ± 20%). Subsequent image analysis was performed by setting the regions of interest using Osirix MD software (Version 13, Pixmeo SARL, Bernex, Switzerland) and PMOD software (Version 3.903, PMOD Technologies, Fällanden, Switzerland). Blood samples were obtained pre-administration and at 1, 3, and 24 h post-administration, followed by euthanasia via bloodletting at 24 h.\nUrine and feces samples were collected at each time point. Following euthanasia, the brain, thyroid gland, salivary gland, lungs, heart, liver, kidney, spleen, pancreas, stomach, small intestine, large intestine, bladder, testes, and prostate tissues were collected. Organ weights and radiation doses were measured using a γ-counter (model: 2480Wizard2, PerkinElmer) and γ-camera system (E-cam) by appropriate cross-calibration."}, "[2]": {"assay": "TLC metabolite analysis of blood samples, mice", "assay_type": "in vivo", "details": "plasma", "procedure": "as §2\nThe blood samples were centrifuged at 3000 rpm for 5 min, and the resulting plasma was mixed with twice the volume of ethanol, then agitated vigorously. The supernatants were analyzed by thin-layer chromatography (TLC)."}, "[3]": {"assay": "Necropsy and histological evaluation in mice", "assay_type": "in vivo, ICR mice", "procedure": "as §1\nThe brain, salivary gland, thyroid, heart, lungs, liver, kidney, adrenal gland, pancreas, spleen, thymus, stomach, small intestine, large intestine, bladder, prostate, and testes were collected on days 1 or 14 in mice and at 24 h in monkeys. Additionally, the pituitary gland, tongue, trachea, esophagus, mesenteric lymph nodes, epididymis, seminal vesicles, skin, mammary glands, spinal cord, bone, bone marrow (femur), eyeball, and optic nerve were collected from the mice. After fixation, paraffin sections were prepared and stained with hematoxylin and eosin (HE). All the specimens were evaluated by an expert in toxic pathology using an integrated fluorescence microscope (BZ-X810; Keyence Corporation. Osaka, Japan). In mice, the brain, salivary glands, heart, lungs, liver, gallbladder, spleen, kidneys, and testes were weighed according to ICH S4 guideline."}, "[4]": {"set-up": "method as in PMID 35553387", "details": "LNCaP xenograft mice, 1MBq (53MBq/kg), 3 and 6 weeks after administration; cited from earlier work"}, "[5]": {"details": "mice, 12 MBq/kg, regarded as spontaneous lesion"}}, "data": [{"compound": "O=C(O)CC[C@H](NC(=O)N[C@@H](CCCCNC(=O)[C@@H](Cc1ccc2ccccc2c1)NC(=O)c1ccc(CNC(=O)[C@@H](CCC(=O)O)NC(=O)[C@@H](CCC(=O)O)NC(=O)Cc2ccc([211At])cc2)cc1)C(=O)O)C(=O)O", "note": "[[^211At]PSMA-5]", "values": [{"measurement": "time of peak kidney uptake post-administration", "setting": "[1]; ICR mice, 5 MBq/kg i.v.", "result": 6, "unit": "h"}, {"measurement": "time of peak thyroid gland uptake", "setting": "[1]; ICR mice, 5 MBq/kg i.v.", "result": 3, "unit": "h"}, {"measurement": "cumulative fecal excretion", "setting": "[1]; ICR mice, 5 MBq/kg i.v., 6 h", "result": "3.03 ± 1.90", "unit": "%ID"}, {"measurement": "cumulative urinary excretion", "setting": "[1]; ICR mice, 5 MBq/kg i.v., 6 h", "result": "4.85 ± 1.76", "unit": "%ID"}, {"measurement": "cumulative fecal excretion", "setting": "[1]; ICR mice, 5 MBq/kg i.v., 24 h", "result": "24.07 ± 8.54", "unit": "%ID"}, {"measurement": "cumulative urinary excretion", "setting": "[1]; ICR mice, 5 MBq/kg i.v., 24 h", "result": "18.89 ± 4.57", "unit": "%ID"}, {"measurement": "uptake in the thyroid", "setting": "[1]; mice, 3 h post-administration", "result": 51, "unit": "%ID/g"}, {"measurement": "metabolites in blood samples (TLC)", "setting": "[2]", "result": "no metabolites were detected"}, {"measurement": "gross findings during necropsy", "setting": "[3]; expert evaluation", "result": "no gross abnormalities beyond spontaneous lesions"}, {"measurement": "histological changes in the thyroid, testes, and kidneys compared to the control group", "setting": "[3]; mice, 5, 12 and 35 MBq/kg", "result": "no significant changes"}, {"measurement": "single-cell necrosis/apoptosis of crypt epithelial cells in pyloric glands of the stomach, duodenum, jejunum", "setting": "[3]; mice, 5-35 MBq/kg, day 1", "result": "dose-dependent increase"}, {"measurement": "tingible body macrophages in white pulp of the spleen and lymphoid follicles of mesenteric lymph nodes", "setting": "[3]; mice, 5-35 MBq/kg, day 1", "result": "dose-dependent increase"}, {"measurement": "incidence of increased single-cell necrosis/apoptosis in striatal epithelial and serous cells of the salivary gland", "setting": "[3]; mice, 12 MBq/kg, day 1", "result": "1/10"}, {"measurement": "incidence of atrophy of the seminal vesicles", "setting": "[3]; [5]", "result": "1/10"}, {"measurement": "incidence of intraperitoneal mass", "setting": "[3]; [5]", "result": "1/10"}, {"measurement": "incidence of cortical lymphopenia in the thymus", "setting": "[3]; mice, 35 MBq/kg, day 1", "result": "2/10"}, {"measurement": "incidence of decrease in bone marrow cells", "setting": "[3]; mice, 35 MBq/kg, day 1", "result": "9/10"}, {"measurement": "incidence of increased single-cell necrosis/apoptosis in striatal epithelial and serous cells of the salivary gland", "setting": "[3]; mice, 35 MBq/kg, day 1", "result": "7/10"}, {"measurement": "incidence of mild localized hepatocellular necrosis in the liver", "setting": "[3]; mice, 35 MBq/kg, considered a spontaneously occurring lesion", "result": "1/10"}, {"measurement": "degenerative changes in salivary glands, stomach, duodenum, jejunum, spleen, mesenteric lymph nodes, bone marrow, thymus", "setting": "[3]; mice, day 14 post-administration", "result": "not observed"}, {"measurement": "kidney histology", "setting": "[4]", "result": "regenerated tubules were observed"}]}]}
